Results on one molecule are retold here after patent publication US20240180817A1, “PLANT FERMENTED LIQUID, PLANT FERMENTED PRODUCT PRODUCED USING GLUCONOBACTER THAILANDICUS STRAIN AND USE THEREOF” (LG HOUSEHOLD & HEALTH CARE LTD., priority 2022, published 2024).

For the assay, the system named is human keratinocyte HaCaT. In words: Hyaluronic acid synthesis, Quantikine ELISA Hyaluronan. It counts as cell-based. The following applies: 30 ppb, 72 hours. The method, then:
Samples were treated with human keratinocyte HaCaT for 72 hours at each concentration. Hyaluronic acid synthesis was compared with the control group (DMEM treatment containing 0% serum) using Quantikine ELISA Hyaluronan from R&D Systems to quantify the moisturizing ability.
(In general: ELISA stands for enzyme-linked immunosorbent assay.)

On to `CC1=C(/C=C/C(C)=C/C=C/C(C)=C/C(=O)O)C(C)(C)CCC1` [Retinoic acid], for which the “Hyaluronic Acid Synthesis Ability” value is 18.6 % of control.
